Columns and labels:
Assay type in all cases: functional
TK-10 [1] = assay: Cytotoxicity against human TK10 cells assessed as cell growth at 100 uM after 48 hrs by sulforhodamine B assay relative to control; settings: TK-10, 48 h, read-out: Activity
MOLT-4 = assay: Cytotoxicity against human MOLT4 cells assessed as cell growth at 1 uM after 48 hrs by sulforhodamine B assay relative to control; settings: MOLT-4, 48 h, read-out: Activity
NCI-H23 = assay: Cytotoxicity against human NCI-H23 cells assessed as cell growth at 10 uM after 48 hrs by sulforhodamine B assay relative to control; settings: NCI-H23, 48 h, read-out: Activity
NCI-H322M = assay: Cytotoxicity against human NCI-H322M cells assessed as cell growth at 100 uM after 48 hrs by sulforhodamine B assay relative to control; settings: read-out: Activity
SK-MEL-5 = assay: Cytotoxicity against human SK-MEL-5 cells assessed as cell growth at 0.01 uM after 48 hrs by sulforhodamine B assay relative to control; settings: SK-MEL-5, 48 h, read-out: Activity
UACC-62 = assay: Cytotoxicity against human UACC62 cells assessed as growth inhibition after 48 hrs by sulforhodamine B assay; settings: UACC-62, 48 h
UACC-257 [2] = assay: Cytotoxicity against human UACC257 cells assessed as cell growth at 0.01 uM after 48 hrs by sulforhodamine B assay relative to control; settings: UACC-257, 48 h, read-out: Activity
NCI-H460 [3] = assay: Cytotoxicity against human NCI-H460 cells assessed as cell growth at 0.1 uM after 48 hrs by sulforhodamine B assay relative to control; settings: NCI-H460, 48 h, read-out: Activity
HT-29 = assay: Cytotoxicity against human HT-29 cells assessed as growth inhibition after 48 hrs by sulforhodamine B assay; settings: HT-29, 48 h
Hs-578T = assay: Cytotoxicity against human Hs 578T cells assessed as cell growth at 10 uM after 48 hrs by sulforhodamine B assay relative to control; settings: read-out: Activity
TK-10 [4] = assay: Cytotoxicity against human TK10 cells assessed as cell growth at 1 uM after 48 hrs by sulforhodamine B assay relative to control; settings: TK-10, 48 h, read-out: Activity
NCI-H460 [5] = assay: Cytotoxicity against human NCI-H460 cells assessed as growth inhibition after 48 hrs by sulforhodamine B assay; settings: NCI-H460, 48 h
SR = assay: Cytotoxicity against human SR cells assessed as cell growth at 100 uM after 48 hrs by sulforhodamine B assay relative to control; settings: read-out: Activity
DU-145 = assay: Cytotoxicity against human DU145 cells assessed as growth inhibition after 48 hrs by sulforhodamine B assay; settings: DU-145, 48 h; for CC50: read-out: LC50 (the source's name)
K562 = assay: Cytotoxicity against human K562 cells assessed as cell growth at 0.01 uM after 48 hrs by sulforhodamine B assay relative to control; settings: K562, 48 h, read-out: Activity
HCT-116 = assay: Cytotoxicity against human HCT116 cells assessed as cell growth at 1 uM after 48 hrs by sulforhodamine B assay relative to control; settings: HCT-116, 48 h, read-out: Activity
KM12 [6] = assay: Cytotoxicity against human KM12 cells assessed as cell growth at 100 uM after 48 hrs by sulforhodamine B assay relative to control; settings: KM12, 48 h, read-out: Activity
M14 = assay: Cytotoxicity against human M14 cells assessed as cell growth at 0.1 uM after 48 hrs by sulforhodamine B assay relative to control; settings: M14, 48 h, read-out: Activity
SF-539 = assay: Cytotoxicity against human SF539 cells assessed as growth inhibition after 48 hrs by sulforhodamine B assay; settings: SF-539, 48 h
MCF7 [7] = assay: Cytotoxicity against human MCF7 cells assessed as cell growth at 100 uM after 48 hrs by sulforhodamine B assay relative to control; settings: MCF7, 48 h, read-out: Activity
A498 = assay: Cytotoxicity against human A498 cells assessed as cell growth at 0.01 uM after 48 hrs by sulforhodamine B assay relative to control; settings: A498, 48 h, read-out: Activity
OVCAR-3 = assay: Cytotoxicity against human OVCAR3 cells assessed as cell growth at 0.01 uM after 48 hrs by sulforhodamine B assay relative to control; settings: OVCAR-3, 48 h, read-out: Activity
MCF7 [8] = assay: Cytotoxicity against human MCF7 cells assessed as cell growth at 1 uM after 48 hrs by sulforhodamine B assay relative to control; settings: MCF7, 48 h, read-out: Activity
KM12 [9] = assay: Cytotoxicity against human KM12 cells assessed as cell growth at 10 uM after 48 hrs by sulforhodamine B assay relative to control; settings: KM12, 48 h, read-out: Activity
UO-31 = assay: Cytotoxicity against human UO31 cells assessed as cell growth at 1 uM after 48 hrs by sulforhodamine B assay relative to control; settings: UO-31, 48 h, read-out: Activity
TK-10 [10] = assay: Cytotoxicity against human TK10 cells assessed as cell growth at 0.1 uM after 48 hrs by sulforhodamine B assay relative to control; settings: TK-10, 48 h, read-out: Activity
U-251 = assay: Cytotoxicity against human U251 cells assessed as cell growth at 100 uM after 48 hrs by sulforhodamine B assay relative to control; settings: U-251, 48 h, read-out: Activity
PC-3 = assay: Cytotoxicity against human PC3 cells assessed as cell growth at 1 uM after 48 hrs by sulforhodamine B assay relative to control; settings: PC-3, 48 h, read-out: Activity
COLO 205 = assay: Cytotoxicity against human COLO205 cells assessed as cell growth at 10 uM after 48 hrs by sulforhodamine B assay relative to control; settings: COLO 205, 48 h, read-out: Activity
MDA-MB-231 = assay: Cytotoxicity against human MDA-MB-231 cells assessed as cell growth at 100 uM after 48 hrs by sulforhodamine B assay relative to control; settings: MDA-MB-231, 48 h, read-out: Activity
OVCAR-5 = assay: Cytotoxicity against human OVCAR5 cells assessed as cell growth at 10 uM after 48 hrs by sulforhodamine B assay relative to control; settings: OVCAR-5, 48 h, read-out: Activity
SK-OV-3 = assay: Cytotoxicity against human SKOV3 cells assessed as cell growth at 1 uM after 48 hrs by sulforhodamine B assay relative to control; settings: SK-OV-3, 48 h, read-out: Activity
UACC-257 [11] = assay: Cytotoxicity against human UACC257 cells assessed as cell growth at 10 uM after 48 hrs by sulforhodamine B assay relative to control; settings: UACC-257, 48 h, read-out: Activity
SF-268 = assay: Cytotoxicity against human SF268 cells assessed as cell growth at 100 uM after 48 hrs by sulforhodamine B assay relative to control; settings: SF-268, 48 h, read-out: Activity
HCC 2998 = assay: Cytotoxicity against human HCC2998 cells assessed as cell growth at 0.1 uM after 48 hrs by sulforhodamine B assay relative to control; settings: HCC 2998, 48 h, read-out: Activity

## COc1ccc(-c2cc(/C=C/C(=O)c3ccc(N)cc3)[nH]n2)cc1
TK-10 [1]
  growth at 100 µM: -91%
MOLT-4
  growth at 1 µM: 80%
NCI-H23
  growth at 10 µM: 8%
NCI-H322M
  growth at 100 µM: -98%
SK-MEL-5
  growth at 0.01 µM: 97%
UACC-62
  GI50: 1.48 µM
  LC50: 5.84 µM
  TGI: 2.94 µM
UACC-257 [2]
  growth at 0.01 µM: 96%
NCI-H460 [3]
  growth at 0.1 µM: 102%
HT-29
  GI50: 2.75 µM
  LC50: 74.1 µM
  TGI: 8.11 µM
Hs-578T
  growth at 10 µM: 22%
TK-10 [4]
  growth at 1 µM: 81%
NCI-H460 [5]
  GI50: 2.07 µM
  LC50: 20.9 µM
  TGI: 4.95 µM
SR
  growth at 100 µM: -61%
DU-145
  GI50: 1.32 µM
  TGI: 3.46 µM
  CC50: 9.11 µM
K562
  growth at 0.01 µM: 98%
HCT-116
  growth at 1 µM: 67%
KM12 [6]
  growth at 100 µM: -78%
M14
  growth at 0.1 µM: 103%
SF-539
  GI50: 1.47 µM
  LC50 (concentration killing 50% of cells): 8.25 µM
  TGI: 3.48 µM
MCF7 [7]
  growth at 100 µM: -68%
A498
  growth at 0.01 µM: 88%
OVCAR-3
  growth at 0.01 µM: 104%
MCF7 [8]
  growth at 1 µM: 42%
KM12 [9]
  growth at 10 µM: -67%
UO-31
  growth at 1 µM: 61%
TK-10 [10]
  growth at 0.1 µM: 95%
U-251
  growth at 100 µM: -100%
PC-3
  growth at 1 µM: 81%
COLO 205
  growth at 10 µM: -86%
MDA-MB-231
  growth at 100 µM: -65%
OVCAR-5
  growth at 10 µM: -41%
SK-OV-3
  growth at 1 µM: 105%
UACC-257 [11]
  growth at 10 µM: -54%
SF-268
  growth at 100 µM: -61%
HCC 2998
  growth at 0.1 µM: 98%

## COc1ccc(-c2cc(/C=C/C(=O)c3ccc(OC)c(OC)c3)[nH]n2)cc1
TK-10 [1]
  growth at 100 µM: -98%
MOLT-4
  growth at 1 µM: 95%
NCI-H23
  growth at 10 µM: -24%
NCI-H322M
  growth at 100 µM: -98%
SK-MEL-5
  growth at 0.01 µM: 90%
UACC-62
  GI50: 1.65 µM
  LC50: 6.79 µM
  TGI: 3.35 µM
UACC-257 [2]
  growth at 0.01 µM: 92%
NCI-H460 [3]
  growth at 0.1 µM: 101%
HT-29
  GI50: 1.55 µM
  LC50: 7.68 µM
  TGI: 3.45 µM
Hs-578T
  growth at 10 µM: 23%
TK-10 [4]
  growth at 1 µM: 103%
NCI-H460 [5]
  GI50: 1.64 µM
  LC50: 22.8 µM
  TGI: 4.34 µM
SR
  growth at 100 µM: -41%
DU-145
  GI50: 1.4 µM
  TGI: 2.81 µM
  CC50: 5.64 µM
K562
  growth at 0.01 µM: 109%
HCT-116
  growth at 1 µM: 51%
KM12 [6]
  growth at 100 µM: -79%
M14
  growth at 0.1 µM: 105%
SF-539
  GI50: 1.27 µM
  LC50 (concentration killing 50% of cells): 5.38 µM
  TGI: 2.61 µM
MCF7 [7]
  growth at 100 µM: -100%
A498
  growth at 0.01 µM: 91%
OVCAR-3
  growth at 0.01 µM: 106%
MCF7 [8]
  growth at 1 µM: 27%
KM12 [9]
  growth at 10 µM: -72%
UO-31
  growth at 1 µM: 61%
TK-10 [10]
  growth at 0.1 µM: 102%
U-251
  growth at 100 µM: -100%
PC-3
  growth at 1 µM: 71%
COLO 205
  growth at 10 µM: -89%
MDA-MB-231
  growth at 100 µM: -86%
OVCAR-5
  growth at 10 µM: -49%
SK-OV-3
  growth at 1 µM: 112%
UACC-257 [11]
  growth at 10 µM: -67%
SF-268
  growth at 100 µM: -63%
HCC 2998
  growth at 0.1 µM: 105%

## COc1ccc(-c2cc(/C=C/C(=O)c3ccc(N)cc3)[nH]n2)cc1OC
TK-10 [1]
  growth at 100 µM: -98%
MOLT-4
  growth at 1 µM: 93%
NCI-H23
  growth at 10 µM: 21%
NCI-H322M
  growth at 100 µM: -88%
SK-MEL-5
  growth at 0.01 µM: 99%
UACC-62
  GI50: 3.11 µM
  LC50: 39.6 µM
  TGI: 10.9 µM
UACC-257 [2]
  growth at 0.01 µM: 90%
NCI-H460 [3]
  growth at 0.1 µM: 100%
HT-29
  GI50: 2.6 µM
  LC50: 58.9 µM
  TGI: 6.91 µM
Hs-578T
  growth at 10 µM: 40%
TK-10 [4]
  growth at 1 µM: 107%
NCI-H460 [5]
  GI50: 2.03 µM
  LC50: 10.6 µM
  TGI: 4.53 µM
SR
  growth at 100 µM: -5%
DU-145
  GI50: 3.74 µM
  TGI: 13.5 µM
  CC50: 36.8 µM
K562
  growth at 0.01 µM: 99%
HCT-116
  growth at 1 µM: 87%
KM12 [6]
  growth at 100 µM: -98%
M14
  growth at 0.1 µM: 97%
SF-539
  GI50: 1.73 µM
  LC50 (concentration killing 50% of cells): 7.19 µM
  TGI: 3.53 µM
MCF7 [7]
  growth at 100 µM: -58%
A498
  growth at 0.01 µM: 95%
OVCAR-3
  growth at 0.01 µM: 106%
MCF7 [8]
  growth at 1 µM: 81%
KM12 [9]
  growth at 10 µM: -79%
UO-31
  growth at 1 µM: 86%
TK-10 [10]
  growth at 0.1 µM: 100%
U-251
  growth at 100 µM: -96%
PC-3
  growth at 1 µM: 89%
COLO 205
  growth at 10 µM: -79%
MDA-MB-231
  growth at 100 µM: -77%
OVCAR-5
  growth at 10 µM: -10%
SK-OV-3
  growth at 1 µM: 97%
UACC-257 [11]
  growth at 10 µM: 39%
SF-268
  growth at 100 µM: -80%
HCC 2998
  growth at 0.1 µM: 100%
